What follows are molecules tested against T1, human A3-adenosine receptor (Homo sapiens, UniProt P0DMS8) (assay: A3 receptor binding, determined in analogy to Salvatore et al.). Conditions: KiA3 (human) Rezeptorbindungswerte, Tabelle 3.
T1 sequence (P0DMS8 1-318): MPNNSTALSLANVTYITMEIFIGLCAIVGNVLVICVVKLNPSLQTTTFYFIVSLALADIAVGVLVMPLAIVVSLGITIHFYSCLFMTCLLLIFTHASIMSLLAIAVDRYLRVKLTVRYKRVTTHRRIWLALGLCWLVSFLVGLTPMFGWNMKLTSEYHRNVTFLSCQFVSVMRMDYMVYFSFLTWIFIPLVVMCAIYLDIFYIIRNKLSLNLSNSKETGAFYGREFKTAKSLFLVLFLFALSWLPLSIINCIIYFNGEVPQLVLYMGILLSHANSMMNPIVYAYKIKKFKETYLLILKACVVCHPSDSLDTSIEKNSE
Description: Tabelle 3 enthält KiA3 (human) Rezeptorbindungswerte.

Row | SMILES | Ki [nM]
1 | CCCc1nc2c([nH]1)c(=O)n(CCC)c1nc(C3CCCC3)nn21 [Beispiel 2, 2-Cyclopentyl-4,7-di-n-propyl-imidazo[4.5-e]-s-triazolo[1.5-a]pyrimidin-5-on] | 5.6
2 | CCCn1c(=O)c2[nH]c(C)nc2n2nc(Cc3ccccc3)nc12 [Beispiel 8, 2-Benzyl-7-methyl-4-n-propyl-imidazo[4.5-e]-s-triazolo[1.5-a]pyrimidin-5-on] | 0.9
3 | CCn1c(=O)c2[nH]c(C)nc2n2nc(CCc3ccccc3)nc12 [Beispiel 10, 4-Ethyl-7-methyl-2-(2-phenylethyl)-imi-dazo[4.5-e]-s-triazolo[1.5-a]pyrimidin-5-on] | 7.2
4 | CCCn1c(=O)c2[nH]c(C)nc2n2nc(-c3ccco3)nc12 [Beispiel 36, 2-(2-Furanyl)-7-methyl-4-n-propyl-imi-dazo[4.5-e]-s-triazolo[1.5-a]pyrimidin-5-on] | 2.2
5 | CCCc1nc2c([nH]1)c(=O)n(CCC)c1nc(-c3ccco3)nn21 [Beispiel 37, 2-(2-Furanyl)-4,7-di-n-propyl-imidazo[4.5-e]-s-triazolo[1.5-a]pyrimidin-5-on] | 8.3

What follows are molecules tested against T2, human A1 adenosine Receptor (Homo sapiens, UniProt P30542) (assay: A1 receptor binding, determined in analogy to Ensinger et al.). Conditions: KiA1 (human) Rezeptorbindungswerte, Tabelle 2; read-out: KjA1.
T2 sequence (P30542 1-326): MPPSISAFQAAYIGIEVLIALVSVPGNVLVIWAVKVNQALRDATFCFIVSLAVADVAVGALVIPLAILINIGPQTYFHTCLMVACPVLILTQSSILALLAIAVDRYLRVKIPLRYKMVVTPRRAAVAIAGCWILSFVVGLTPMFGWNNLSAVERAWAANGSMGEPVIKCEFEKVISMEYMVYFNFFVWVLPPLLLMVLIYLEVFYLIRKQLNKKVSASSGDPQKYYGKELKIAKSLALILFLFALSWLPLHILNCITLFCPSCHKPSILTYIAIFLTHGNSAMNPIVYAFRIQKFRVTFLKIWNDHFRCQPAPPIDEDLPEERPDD
Description: Die nachfolgende Tabelle enthält KiA1 (human) Rezeptorbindungswerte.

Row | SMILES | Ki [nM]
6 | CCCc1nc2c([nH]1)c(=O)n(CC)c1nc(CCc3ccccc3)nn21 [Beispiel 11, 4-Ethyl-2-(2-phenylethyl)-7-n-propyl-imi-dazo[4.5-e]-s-triazolo[1.5-a]pyrimidin-5-on] | 8.1
7 | CCn1c(=O)c2[nH]c(C(C)(C)C)nc2n2nc(Cc3ccc(O)cc3)nc12 [Beispiel 12, 7-t-Butyl-4-ethyl-2-(4-hydroxybenzyl)-imi-dazo[4.5-e]-s-triazolo[1.5-a]pyrimidin-5-on] | 6
8 | CCn1c(=O)c2[nH]c(C(C)(C)C)nc2n2nc(Cc3ccc(OC)cc3)nc12 [Beispiel 15, 7-t-Butyl-4-ethyl-2-(4-methoxybenzyl)-imi-dazo[4.5-e]-s-triazolo[1.5-a]pyrimidin-5-on] | 2.1
9 | CCn1c(=O)c2[nH]c(C3CCCC3)nc2n2nc(COc3ccccc3)nc12 [Beispiel 29, 7-Cyclopentyl-4-ethyl-2-phenyloxymethyl-imidazo[4.5-e]-s-triazolo[1.5-a]pyrimidin-5-on] | 3.6
10 | CCn1c(=O)c2[nH]c(C3CCCC3)nc2n2nc(Cn3cccc3)nc12 [Beispiel 35, 7-Cyclopentyl-4-ethyl-2-(N-pyrrolylmethyl)-imidazo[4.5-e]-s-triazolo[1.5-a]pyrimidin-5-on] | 2.6
